Structures can show the parent of a compound that is named as a salt. Where two headings read alike, the source gives them in different places.
Key:
[1] = test system: human UM 92-1 cells; assay: Crystal violet proliferation assay in human UM 92-1 cells; format: cell-based; conditions: for effect alone on proliferation of human UM 92-1 cells: 2 μM; for effect on 92-1 cell proliferation compared to the vehicle control: VPA 2 mM, HP 10 μM, (±)-HP-mII 30 μM (predicted IC50 values)
Experimental: Then, actions on cell proliferation were examined by crystal violet staining (Figure 6).
HREC and human 92-1 cell (seeded 4 × 10^3 and grown for 24 h at optimum culture conditions) proliferation was measured using crystal violet staining after treatment in 96-well plates with the indicated concentrations of chemicals for an additional 48 h. Control cells received an equal volume of vehicle (DMSO). At the end of the treatment, each well was washed with phosphate-buffered saline (PBS). Following this, the cells were fixed (in 4% paraformaldehyde) and stained with crystal violet solution (0.5% in 20% methanol for HREC or 1% aqueous solution for 92-1 cells). Subsequently, the plate was washed with water and left to dry. Crystal violet staining was evaluated by measuring the absorbance at 570 nm or 590 nm, after crystal violet extraction with 10% acetic acid (at room temperature for 10 min), with a microplate reader with the plate reader (Synergy 2-BioTek). For quantification, each assay was carried out in triplicate.

[2] = target: T1, σ2 receptor (Cavia porcellus, UniProt H0V073); conditions: guinea pig brain membranes; cited from earlier work
T1 construct: the guinea pig brain membranes (300 μL, 360 μg protein) were incubated for 120 min at room temperature with 3 nM [^3H]-DTG; from tissue; host or cells: guinea pig brain membranes
T1 sequence (H0V073 1-176): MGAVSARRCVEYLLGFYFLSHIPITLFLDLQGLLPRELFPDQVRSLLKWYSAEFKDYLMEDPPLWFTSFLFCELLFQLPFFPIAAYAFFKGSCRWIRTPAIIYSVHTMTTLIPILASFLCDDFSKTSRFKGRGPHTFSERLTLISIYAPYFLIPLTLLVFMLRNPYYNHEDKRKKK

[3] = test system: HREC; conditions: cited from earlier work
[4] = test system: inoperable UM patients; design: method as in PMID 25315663, PMID 23218699, PMID 21880788; conditions: at 4 months; cited from earlier work

## c1ccc(CCN2CCCCC2)cc1 [AC927, 1-phenethylpiperidine, reference compound]
[1]
  effect alone on proliferation of human UM 92-1 cells: promote

## CCCC(CCC)C(=O)O[C@@H](CCCN1CCC(O)(c2ccc(Cl)cc2)CC1)c1ccc(F)cc1 (as salt: oxalate) [(−)-1]
other
  melting point: 158 to 160 °C

## O[C@@H](CCCN1CCC(O)(c2ccc(Cl)cc2)CC1)c1ccc(F)cc1 [(−)-4]
[2]
  Ki: 9.8 ± 1.8 nM

## CCCC(CCC)C(=O)O [VPA, valproic acid]
[3]; 24 h
  pIC50 ± SE, MTT viability test on HREC: 2.91 ± 0.01
[3]; 48 h
  pIC50 ± SE, MTT viability test on HREC: 2.84 ± 0.03
[3]; 72 h
  pIC50 ± SE, MTT viability test on HREC: 2.86 ± 0.01
[1]
  effect on 92-1 cell proliferation compared to the vehicle control: significantly inhibited

## CCCC(CCC)C(=O)O[C@H](CCCN1CCC(O)(c2ccc(Cl)cc2)CC1)c1ccc(F)cc1 (as salt: oxalate) [(+)-1]
other
  melting point: 159 to 164 °C

## AFL: VEGF-trap aflibercept, a popular drug in ophthalmology
[4]
  progression-free survival: 50%

## OC(CCCN1CCC(O)(c2ccc(Cl)cc2)CC1)c1ccc(F)cc1 (racemic) [(±)-HP-mII, haloperidol metabolite II]
[3]; 48 h
  pIC50 ± SE, MTT viability test on HREC: 3.89 ± 0.04
[3]; 72 h
  pIC50 ± SE, MTT viability test on HREC: 4.16 ± 0.03
[2]
  Ki: 2.4 ± 0.7 nM
[1]
  effect on 92-1 cell proliferation compared to the vehicle control: significantly inhibited

## CC(C)=CCN1CC[C@]2(C)c3cc(O)ccc3C[C@H]1[C@H]2C [PTZ, (+)-pentazocine, reference compound]
[1]
  effect alone on proliferation of human UM 92-1 cells: promote

— article PMC8474110 (Journal of Medicinal Chemistry, 2021)
